Reference: patent US11512056B2 (Anhui New Star Pharmaceutical Development Co., Ltd, priority 2018, dated 2022)
Where “and” joins values, the source holds several entries; their conditions need not be identical. Equal entries are not always repeated.

Legend:
human platelets [1] = assay: Collagen-induced aggregation of human platelets (PRP, turbidimetric); format: cell-based
Description: Volunteers' whole blood was drawn from venous blood with 1:6 dextro-citrate ACD (85 mmol/L sodium citrate, 71.38 mmol/L citrate, 27.78 mmol/L glucose) for anticoagulation, and centrifuged at 300 g at room temperature for 10 Minutes, separate platelet rich plasma (PRP).
The turbidimetric platelet aggregation test was performed on the Chrono-Log Company's dual-channel optical platelet aggregation instrument. The speed of the icon recorder was set to 1 cm/min, and the aggregation curve was recorded. First, the platelet aggregator was preheated to 37° C., and 400 μL platelet suspension and stir bar were added to the turbidity tube, PPP was used as a reference, and traced the baseline under constant magnetic stirring at 37° C. After the baseline was stable, with the experiment plan, different concentrations of antagonist or other reagents were added to treat platelets for 2 minutes, and then inducer collagen was added to observe and record changes in the aggregation curve.
The platelet aggregation rate of the solvent control group was set to be 100%. The inhibitory effects of the compounds on normal human platelet aggregation induced by collagen at different concentrations were as follows: […]

arterial thrombosis = assay: SD male rat arteriovenous short circuit thrombosis model (A-V shunt); format: in vivo, male SD rats
Description: Cut the surgical wire with a length of 6 cm, weigh and recorded it on an analytical balance (about 2 mg dry weight), and placed it in a thick polyethylene tube with a length of 6 cm. Inserted a thin tube at each end of the thick tube spare. Male SD rats were intragastrically administered for 4 hours, anesthetized with pentobarbital 60 mg/kg, separated the common carotid artery and common jugular vein, connected the arteries and veins with the above polyethylene tube, opened the blood flow for 15 minutes, removed the surgical line and weighed (WW).

human platelets [2] = assay: ADP-induced aggregation of human platelets (PRP, turbidimetric); format: cell-based; conditions: for IC50: read-out: IC50 of compound on ADP-induced platelet aggregation rate
Description: Volunteers' whole blood was drawn from venous blood with 1:6 dextro-citrate ACD (85 mmol/L sodium citrate, 71.38 mmol/L citrate, 27.78 mmol/L glucose) for anticoagulation, and centrifuged at 300 g at room temperature for 10 minutes, platelet rich plasma (PRP) was separated.
(§1) The turbidimetric platelet aggregation test was performed on the Chrono-Log Company's dual-channel optical platelet aggregation instrument. The speed of the icon recorder was set to 1 cm/min, and the aggregation curve was recorded. First, the platelet aggregator was preheated to 37° C., 400 μL platelet suspension and stir bar were added to the turbidity tube, use PPP as a reference, and traced the baseline under constant magnetic stirring at 37° C. After the baseline was stable, with experiment plan, different concentrations of antagonists or other reagents were added to treat platelets for 2 minutes, and then the inducer ADP was added to observe and record changes in the aggregation curve.

human platelets [3] = assay: Thrombin-induced human platelet aggregation (PRP, turbidimetric); format: cell-based; conditions: for IC50: read-out: IC50 on thrombin-induced platelet aggregation rate
Description: Volunteers' whole blood was drawn from venous blood with 1:6 D-citrate ACD (85 mmol/L sodium citrate, 71.38 mmol/L citrate, 27.78 mmol/L glucose) for anticoagulation, and centrifuged at 300 g at room temperature for 10 minutes, platelet rich plasma (PRP) was separated.
as §1, with “C., and” for “C.,”, “tube,” for “tube, use”, “PPP was used” for “PPP”, “baseline is” for “baseline was”, “with the” for “with”

platelets (rabbit blood) = assay: Inhibition of platelet aggregation in vitro (rabbit blood), ADP-induced, turbidimetric; format: cell-based, New Zealand white rabbits; conditions: Oryctolagus cuniculus, rabbit PRP, ADP final concentration 10 μM
Description: Blood was collected from New Zealand white rabbits (body weight 1-1.5 kg). After the animal was anesthetized with 10% chloral hydrate, the animal was placed supinely on the rabbit board, precordial hair was cut off, and the skin was disinfected with iodine and alcohol. Touch with left hand the 3rd to 4th intercostal space on the left edge of the sternum. Chose the most obvious place for the puncture point. Held the syringe in right hand and insert the needle into the chest cavity. Inserted the needle into the heart and then draw out the blood when feel the heart beating through the needle. […] assay system with a total volume of 300 μL, that is, 280 μL of diluted PRP was taken and placed in a turbidimetric tube, and was incubated with 10 μL of drug or solvent control at 37° C. for 5 minutes, and then 10 μL of different inducers such ADP (final concentration 10 μM) were added to determine the maximum platelet aggregation rate within 5 minutes. Repeation was taken at least three times […].
Platelet-rich plasma (PRP) was obtained by centrifuging blood at 1200 rpm for 10 minutes, and platelet aggregation was measured as described above. […] The platelet density in PRP is counted with a hemocytometer and diluted with platelet-poor plasma (PPP). […]

[4] = Homo sapiens, Platelet, column 1
[5] = Homo sapiens, Platelet, column 2
[6] = Homo sapiens, Platelet, column 3

With `CC1CC(=O)NN=C1c1ccc(NC(=N)N)cc1` (stereo not shown) [No. 1, 1-(4-(4-methyl-6-oxo-1,4,5,6-tetrahydropyridazin-3-yl)phenyl)guanidine] the “inhibitory effect on platelet aggregation induced by collagen” value (human platelets [1]; 1 μg/ml collagen) was “significant inhibitory effect”, the “Aggregation inhibition rate %” value (human platelets [1]; 1 μg/ml collagen, concentration 0.01 μM, 0.01 µM) was 8.96% and 10.94% and the “Aggregation inhibition rate %” value (human platelets [1]; 1 μg/ml collagen, concentration 0.3 μM, 0.3 µM) was 79.10% and 44.78% and 54.69%. For the same compound, the “Aggregation inhibition rate %” value (human platelets [1]; 1 μg/ml collagen, concentration 1 μM, 1 µM) was 80.59% and 95.31%, the inhibition at 0.003 µM (human platelets [1]; Homo sapiens, Platelet, 1 μg/ml collagen, concentration 0.003 μM, read-out: Aggregation inhibition rate %) was 5.97% and the inhibition at 0.01 µM (human platelets [1]; Homo sapiens, Platelet, 1 μg/ml collagen, concentration 0.01 μM, read-out: Aggregation inhibition rate %) was 10.4%. For the same compound, the inhibition at 1 µM (human platelets [1]; Homo sapiens, Platelet, 1 μg/ml collagen, concentration 1 μM, read-out: Aggregation inhibition rate %) was 95.9%, the inhibition at 3 µM (human platelets [1]; Homo sapiens, Platelet, 1 μg/ml collagen, concentration 3 μM, read-out: Aggregation inhibition rate %) was 100% and the IC50 (human platelets [1]; Homo sapiens, Platelet, 1 μg/ml collagen, read-out: IC50 on platelet aggregation induced by collagen) was 157 nM. For the same compound, the IC50 (human platelets [1]; Homo sapiens, Platelet, column 1, read-out: IC50 of compound on collagen-induced platelet aggregation rate) was 95 nM, the IC50 (human platelets [1]; Homo sapiens, Platelet, column 2, read-out: IC50 of compound on collagen-induced platelet aggregation rate) was 233 nM and the IC50 (human platelets [1]; Homo sapiens, Platelet, column 3, read-out: IC50 of compound on collagen-induced platelet aggregation rate) was 143 nM. For the same compound, the Thrombus wet weight (arterial thrombosis; 10 mg/kg intragastric, 4 hours before, blood flow 15 minutes, individual values) was 11.7 mg and 11.5 mg and 12.1 mg, the “weight of arterial thrombus in rats” value (arterial thrombosis; intragastric administration) was “significantly reduced” and the “Aggregation inhibition rate %” value (human platelets [2]; 10 μM ADP, concentration 0.03 μM, listed as Compound No.1) was 17.39%. For the same compound, the “Aggregation inhibition rate %” value (human platelets [2]; 10 μM ADP, concentration 0.03 μM, listed as No.1 Compound) was 49.01%, the “Aggregation inhibition rate %” value (human platelets [2]; 10 μM ADP, concentration 0.1 μM) was 37.68% and the “Aggregation inhibition rate %” value (human platelets [2]; 10 μM ADP, concentration 0.3 μM, listed as Compound No.1) was 39.13%. For the same compound, the “Aggregation inhibition rate %” value (human platelets [2]; 10 μM ADP, concentration 0.3 μM, listed as No.1 Compound) was 62.74%, the “Aggregation inhibition rate %” value (human platelets [2]; 10 μM ADP, concentration 1 μM, listed as Compound No.1) was 42.02% and the “Aggregation inhibition rate %” value (human platelets [2]; 10 μM ADP, concentration 1 μM, listed as No.1 Compound) was 66.67%. For the same compound, the “Aggregation inhibition rate %” value (human platelets [2]; 10 μM ADP, concentration 3 μM) was 51.88%, the inhibition at 0.005 µM (human platelets [2]; Homo sapiens, Platelet, 10 μM ADP, concentration 0.005 μM, read-out: Aggregation inhibition rate %) was 2.99% and the inhibition at 0.01 µM (human platelets [2]; Homo sapiens, Platelet, 10 μM ADP, concentration 0.01 μM, read-out: Aggregation inhibition rate %) was 8.69%. The inhibition at 0.1 µM (human platelets [2]; Homo sapiens, Platelet, 10 μM ADP, concentration 0.1 μM, read-out: Aggregation inhibition rate %) was 43.1%, the inhibition at 3 µM (human platelets [2]; Homo sapiens, Platelet, 10 μM ADP, concentration 3 μM, read-out: Aggregation inhibition rate %) was 71.6% and the inhibition at 5 µM (human platelets [2]; Homo sapiens, Platelet, 10 μM ADP, concentration 5 μM, read-out: Aggregation inhibition rate %) was 81.4%. The inhibition at 10 µM (human platelets [2]; Homo sapiens, Platelet, 10 μM ADP, concentration 10 μM, read-out: Aggregation inhibition rate %) was 95.1%, the IC50 (human platelets [2]; [4]) was 97 nM and the IC50 (human platelets [2]; [5]) was 1080 nM. For the same compound, the IC50 (human platelets [2]; [6]) was 154 nM, the “Aggregation inhibition rate %” value (human platelets [3]; 0.5 U/ml thrombin, concentration 0.01 μM, 0.01 µM) was 2.81% and the “Aggregation inhibition rate %” value (human platelets [3]; 0.5 U/ml thrombin, concentration 0.1 μM, 0.1 µM) was 46.03% and 40.98% and 65.21%. The “Aggregation inhibition rate %” value (human platelets [3]; 0.5 U/ml thrombin, concentration 0.3 μM, 0.3 µM) was 80.95% and 89.85%, the “Aggregation inhibition rate %” value (human platelets [3]; 0.5 U/ml thrombin, concentration 1 μM, 1 µM) was 95.83% and 97.33% and the inhibition at 0.003 µM (human platelets [3]; Homo sapiens, Platelet, 0.5 U/ml thrombin, concentration 0.003 μM, read-out: Aggregation inhibition rate %) was 0%. For the same compound, the inhibition at 0.01 µM (human platelets [3]; Homo sapiens, Platelet, 0.5 U/ml thrombin, concentration 0.01 μM, read-out: Aggregation inhibition rate %) was 3.08%, the inhibition at 0.3 µM (human platelets [3]; Homo sapiens, Platelet, 0.5 U/ml thrombin, concentration 0.3 μM, read-out: Aggregation inhibition rate %) was 71.4% and the inhibition at 1 µM (human platelets [3]; Homo sapiens, Platelet, 0.5 U/ml thrombin, concentration 1 μM, read-out: Aggregation inhibition rate %) was 85.7%. The inhibition at 3 µM (human platelets [3]; Homo sapiens, Platelet, 0.5 U/ml thrombin, concentration 3 μM, read-out: Aggregation inhibition rate %) was 100%, the inhibition at 10 µM (human platelets [3]; Homo sapiens, Platelet, 0.5 U/ml thrombin, concentration 10 μM, read-out: Aggregation inhibition rate %) was 100% and the inhibition at 20 µM (human platelets [3]; Homo sapiens, Platelet, 0.5 U/ml thrombin, concentration 20 μM, read-out: Aggregation inhibition rate %) was 100%. For the same compound, the IC50 (human platelets [3]; [4]) was 194 nM, the IC50 (human platelets [3]; [5]) was 140 nM and the IC50 (human platelets [3]; [6]) was 78 nM. The IC50 (platelets (rabbit blood)) was 197 nM.
